Tests used:
[1] = DPPH radical scavenging activity; settings: 300 μL of 5 mM compound in MeOH, 30 min, 517 nm
Protocol: The DPPH (2,2-diphenyl-1-picryl-hydrazyl-hydrate) free radical scavenging activity method is based on the neutralization of the DPPH radical by an antioxidant.
Free radical scavenging activity was measured using DPPH method [69, 70] with slight modification. Here, 300 μL of 5 mM solutions of tested compounds in MeOH were added to 2 mL methanolic solution of DPPH (2 mg/mL). […] Results were evaluated as percentage scavenging of radical:DPPH radical scavenging activity (%) = ((Abscontr. − Abssample)/Abscontr.) ×100, where Abscontr. is the absorbance of DPPH radical with 300 μL MeOH, Abssample is the absorbance of DPPH radical solution mixed with sample. BHT was used as positive control.

PAMPA-BBB permeability = format: in vitro ADME; settings: for PAMPA BBB −logPe: experimentally measured BBB permeability
Text: At the same time, they needed to fulfill the requirement for good BBB permeation in order to achieve sufficient brain exposure. Although transport across the BBB is quite a complex phenomenon, passive diffusion is still the primary route for exogenous substances to access that target. So, the selected compounds were subjected to an in vitro PAMPA-BBB assay, relying on the capacity of the method in distinguishing the candidates with good BBB passive permeabilities. […].
The blood–brain barrier permeabilities were measured by PAMPA Permeability Analyzer (pIONInc, Billerica, MA, USA). The tested compounds and reference standards were prepared as 10 mM stock solutions in DMSO and further diluted in Prisma HT buffer pH 7.4. The experiment followed the BBB Protocol: 200 μL sample’s aliquots in the donor compartment, Brain Sink Buffer aliquots (200 μL) in the acceptor wells, BBB-1 lipid for coating the permeation membranes, “sandwich” assembly with the acceptor plate on top of the donor one, and incubation at temperature 25 °C for 4 h under humidity control without stirring. For permeability assessment, UV spectra of the blank, reference, donor, and acceptor plates were collected at wavelength 250–500 nm. […]. Samples were analyzed in triplicate and average values were reported. […]. Theophylline, corticosterone, and propranolol HCl were used as reference standards to control the quality and consistency of the BBB permeability experiment.

SH-SY5Y cells = experiment: MTT cytotoxicity, SH-SY5Y; format: cell-based, human; settings: Homo sapiens, SH-SY5Y; MTT, 72 h exposure; read-out: SH-SY5Y IC50
Neuro-2a cells = experiment: MTT cytotoxicity, Neuro-2a; format: cell-based, murine; settings: Mus musculus, N2a; MTT, 72 h exposure; read-out: Neuro-2a IC50
CCL-1 cells = experiment: MTT cytotoxicity, CCL-1 normal fibroblasts; format: cell-based, murine; settings: Mus musculus, Fibroblast; MTT, 72 h exposure; read-out: CCL-1 IC50
[2] = Ferric reducing antioxidant power (FRAP); settings: 150 μL of 5 mM compound, 30 min, 593 nm, Trolox equivalent
[3] = Lipid peroxidation in linoleic acid system, FTC method; settings: 10 mM compound, 500 nm
Protocol: The antioxidant activity of studied compounds against lipid peroxidation was measured through ammonium thiocyanate assay as described by Takao et al. [66] with some modifications. […] A 10 μL aliquot of the reaction solution was then added to 200 μL of 70% (v/v) ethanol and 10 μL of 30% (w/v) ammonium thiocyanate. […] Aliquots were assayed every 24 h until the day after the absorbance of the control solution (without compound) reached maximum value. BHT (10 mM) was used as positive control.

[4] = target: T1, Acetylcholinesterase from Electrophorus electricus (Electrophorus electricus, UniProt O42275); experiment: biochemical; format: biochemical; settings: for inhibition at 1000 µM: 1 mM solution of the tested compound, read-out: Activity [%] (inhibition percentage of AChE); for IC50: mean ± SD of three experiments, read-out: AChE IC50; for SI AChE: IC50(BChE)/IC50(AChE)
T1 construct: purchased Sigma-Aldrich, Hamburg, Germany
T1 sequence (O42275 24-633): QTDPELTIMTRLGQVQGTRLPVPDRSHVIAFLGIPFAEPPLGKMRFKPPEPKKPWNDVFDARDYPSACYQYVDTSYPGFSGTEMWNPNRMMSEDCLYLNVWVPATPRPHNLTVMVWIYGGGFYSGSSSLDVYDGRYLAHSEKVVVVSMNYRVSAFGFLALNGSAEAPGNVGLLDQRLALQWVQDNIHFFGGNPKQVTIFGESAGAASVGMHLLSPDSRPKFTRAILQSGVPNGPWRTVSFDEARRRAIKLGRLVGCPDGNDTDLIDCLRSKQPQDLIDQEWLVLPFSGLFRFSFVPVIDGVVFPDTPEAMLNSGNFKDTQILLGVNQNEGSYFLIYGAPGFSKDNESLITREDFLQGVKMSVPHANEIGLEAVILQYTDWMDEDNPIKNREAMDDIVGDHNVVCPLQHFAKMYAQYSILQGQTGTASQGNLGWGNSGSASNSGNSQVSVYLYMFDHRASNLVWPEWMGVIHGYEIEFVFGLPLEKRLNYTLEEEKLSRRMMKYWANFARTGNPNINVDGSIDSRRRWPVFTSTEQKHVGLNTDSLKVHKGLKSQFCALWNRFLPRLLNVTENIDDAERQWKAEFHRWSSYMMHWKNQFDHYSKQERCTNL
Protocol: (§1) AChE and BChE inhibitory activity was measured using the microplate assay described by Ellman et al. [68] with the modifications added by López et al. [36]. The compounds were tested at concentrations between 10^−3 and 10^−8 M. First, all compounds were dissolved in 1% DMSO in a concentration of 1 mg/mL.
(§2) Incubation of the plates was performed at room temperature for 30 min. Then, 100 μL of substrate solution were added to start the enzymatic reaction. […] Enzyme activity was calculated as an inhibition percentage compared to an assay including buffer instead of an inhibitor. […] All data were analyzed with the software package Prism 3 (Graph Pad Inc., San Diego, CA, USA).

[5] = target: T2, butyrylcholinesterase from equine serum (Equus caballus, UniProt P81908); experiment: biochemical; settings: for inhibition at 1000 µM: 1 mM solution of the tested compound, read-out: Activity [%] (inhibition percentage of BChE); for SI BChE: IC50(AChE)/IC50(BChE); for IC50: mean ± SD of three experiments, read-out: BChE IC50
T2 construct: butyrylcholinesterase from equine serum; purchased Sigma-Aldrich, Hamburg, Germany; host or cells: equine serum
T2 sequence (P81908 whole entry): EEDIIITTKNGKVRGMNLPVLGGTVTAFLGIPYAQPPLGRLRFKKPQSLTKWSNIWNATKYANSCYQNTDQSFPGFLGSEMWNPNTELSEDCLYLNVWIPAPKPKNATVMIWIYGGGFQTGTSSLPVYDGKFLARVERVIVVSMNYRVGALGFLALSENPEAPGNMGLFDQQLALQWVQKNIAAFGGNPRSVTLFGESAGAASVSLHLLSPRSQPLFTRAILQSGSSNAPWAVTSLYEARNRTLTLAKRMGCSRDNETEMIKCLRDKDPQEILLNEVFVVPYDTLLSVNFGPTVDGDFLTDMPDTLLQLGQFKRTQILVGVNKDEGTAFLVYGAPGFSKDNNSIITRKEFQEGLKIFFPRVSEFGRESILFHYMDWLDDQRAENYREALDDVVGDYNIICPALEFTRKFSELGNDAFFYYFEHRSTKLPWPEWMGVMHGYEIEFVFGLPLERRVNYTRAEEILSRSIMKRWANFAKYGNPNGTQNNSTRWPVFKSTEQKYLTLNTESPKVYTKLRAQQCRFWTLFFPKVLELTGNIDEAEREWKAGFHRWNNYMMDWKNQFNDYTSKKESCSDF
Protocol: as §1, §2

[6] = ABTS radical scavenging assay; settings: 734 nm after 5 min
Protocol: These compounds were also tested for their antioxidant activities by using the ABTS [2,2′-azinobis (3-ethylbenzothiazoline-6-sulfonic acid)] cation radical decolorization method (Table 4). The BHT [41] was used for comparison. The ABTS cation radical is produced by oxidation of the ABTS molecule with strong oxidizing agents, such as potassium persulfate in water.
For ABTS assay, the procedure followed the method of Arnao et al. [71] with some modifications. […] The working solution was then prepared by mixing the two stock solutions in equal quantities and allowing them to react for 14 h at room temperature in the dark. […] A fresh ABTS solution was prepared for each assay. […] The ABTS scavenging capacity of the compound was calculated as follows:ABTS radical scavenging activity (%) = ((Abscontr. − Abssample)/Abscontr.) ×100, where Abscontr. is the absorbance of DPPH radical with 300 μL MeOH, Abssample is the absorbance of DPPH radical solution mixed with the sample. […] BHT was used as positive control.

## O=C(Cc1c[nH]c2ccccc12)N/N=C/C1CCN(Cc2ccccc2)CC1 [3a, N’-[(E)-(1-benzylpiperidin-4-yl)methylidene]-2-(1H-indol-3-yl)acetohydrazide]
[1]
  DPPH Activity: 5.74 ± 0.39%
PAMPA-BBB permeability
  PAMPA BBB −logPe: 4.420
SH-SY5Y cells
  IC50: 129 ± 7.5 µM
Neuro-2a cells
  IC50: > 300 µM
CCL-1 cells
  IC50: 138 ± 9.8 µM
[2]
  FRAP: 15.42 ± 0.74 μMTE
[3]
  Absorbance Day 1: 0.87 ± 0.03
  Absorbance Day 2: 0.87 ± 0.08
  Absorbance Day 3: 0.72 ± 0.07
  Absorbance Day 4: 0.72 ± 0.05
  Absorbance Day 5: 0.71 ± 0.08
[4]
  inhibition at 1000 µM: 78.9%
  IC50: 76.5 ± 3.04 µM
[5]
  inhibition at 1000 µM: 80.4%
  SI BChE: 1.35
  IC50: 56.5 ± 0.2 µM

## O=C(N/N=C/C1CCN(Cc2ccccc2)CC1)c1ccc(O)cc1O [3b, N’-[(E)-(1-benzylpiperidin-4-yl)methylidene]-2,4-dihydroxybenzohydrazide]
[1]
  DPPH Activity: 13.30 ± 0.83%
PAMPA-BBB permeability; PAMPA-BBB
  BBB permeability class: moderately permeable
PAMPA-BBB permeability
  PAMPA BBB −logPe: 5.873
SH-SY5Y cells
  IC50: 138 µM
Neuro-2a cells
  IC50: > 300 µM
CCL-1 cells
  IC50: 154 ± 7.3 µM
[2]
  FRAP: 16.63 ± 0.98 μMTE
[3]
  Absorbance Day 1: 0.92 ± 0.06
  Absorbance Day 2: 0.93 ± 0.09
  Absorbance Day 3: 0.95 ± 0.05
  Absorbance Day 4: 0.96 ± 0.01
  Absorbance Day 5: 1.00 ± 0.02
[6]
  ABTS Activity: 93.22 ± 0.30%
  IC50: 2.57 ± 0.1 mM
[4]
  inhibition at 1000 µM: 89.3%
  SI AChE: 13.22
  IC50: 19.8 ± 0.95 µM
[5]
  inhibition at 1000 µM: 75.9%
  IC50: 262 ± 8.75 µM

## O=C(N/N=C/C1CCN(Cc2ccccc2)CC1)c1c[nH]c2ccccc12 [3c, N’-[(E)-(1-benzylpiperidin-4-yl)methylidene]-1H-indole-3-carbohydrazide]
[1]
  DPPH Activity: 30.05 ± 0.55%
PAMPA-BBB permeability
  PAMPA BBB −logPe: 4.466
SH-SY5Y cells
  IC50: 97.3 µM
Neuro-2a cells
  IC50: > 300 µM
CCL-1 cells
  IC50: 168 ± 10.4 µM
[2]
  FRAP: 38.97 ± 3.58 μMTE
[3]
  Absorbance Day 1: 0.89 ± 0.07
  Absorbance Day 2: 0.87 ± 0.02
  Absorbance Day 3: 0.85 ± 0.05
  Absorbance Day 4: 0.85 ± 0.07
  Absorbance Day 5: 0.74 ± 0.05
[6]
  ABTS Activity: 36.69 ± 0.70%
  IC50: > 5 mM
[4]
  inhibition at 1000 µM: 72%
  SI AChE: 2.45
  IC50: 10.8 ± 1.66 µM
[5]
  inhibition at 1000 µM: 77%
  IC50: 26.3 ± 3.11 µM

## COc1ccc(C(=O)N/N=C/C2CCN(Cc3ccccc3)CC2)cc1 [3d, N’-[(E)-(1-benzylpiperidin-4-yl)methylidene]-4-methoxybenzohydrazide]
[1]
  DPPH Activity: 40.80 ± 3.10%
SH-SY5Y cells
  IC50: 122 ± 9.2 µM
Neuro-2a cells
  IC50: > 300 µM
CCL-1 cells
  IC50: 220 µM
[2]
  FRAP: 15.87 ± 1.41 μMTE
[3]
  Absorbance Day 1: 0.85 ± 0.02
  Absorbance Day 2: 0.86 ± 0.02
  Absorbance Day 3: 0.88 ± 0.05
  Absorbance Day 4: 0.85 ± 0.07
  Absorbance Day 5: 0.84 ± 0.09
[6]
  ABTS Activity: ≥100%
  IC50: 1.05 ± 0.04 mM
[4]
  inhibition at 1000 µM: 81.2%
  SI AChE: 20.19
  IC50: 9.77 ± 0.76 µM
[5]
  inhibition at 1000 µM: 72.9%
  IC50: 197 ± 18.7 µM

## CC(C)(C)OC(=O)NCC(=O)N/N=C/c1cn(Cc2ccccc2)c2ccccc12 [3m, tert-butyl(2-{(2E)-2-[(1-benzyl-1H-indol-3-yl)methylidene]hydrazinyl}-2-oxoethyl)carbamate]
[1]
  DPPH Activity: 32.06 ± 4.70%
PAMPA-BBB permeability
  PAMPA BBB −logPe: 4.377
SH-SY5Y cells
  IC50: 7.2 ± 1.8 µM
Neuro-2a cells
  IC50: 109 ± 9.1 µM
CCL-1 cells
  IC50: 65.4 ± 5.1 µM
[2]
  FRAP: 19.06 ± 1.96 μMTE
[3]
  Absorbance Day 1: 0.89 ± 0.09
  Absorbance Day 2: 0.89 ± 0.01
  Absorbance Day 3: 0.92 ± 0.05
  Absorbance Day 4: 0.95 ± 0.01
  Absorbance Day 5: 0.96 ± 0.08
[6]
  ABTS Activity: 36.20 ± 1.40%
  IC50: > 5 mM
[4]
  inhibition at 1000 µM: 2.01%
  IC50: > 1000 µM
[5]
  inhibition at 1000 µM: 59.4%
  SI BChE: 3.05
  IC50: 327 ± 34.3 µM

## COc1cc(/C=N/NC(=O)Cc2c[nH]c3ccccc23)ccc1O [3q, N’-[(E)-(4-hydroxy-3-methoxyphenyl)methylidene]-2-(1H-indol-3-yl)acetohydrazide]
[1]
  DPPH Activity: 20.40 ± 0.83%
SH-SY5Y cells
  IC50: 141 ± 8.8 µM
Neuro-2a cells
  IC50: 254 ± 13.7 µM
CCL-1 cells
  IC50: 170 ± 14 µM
[2]
  FRAP: 15.60 ± 0.90 μMTE
[3]
  Absorbance Day 1: 0.76 ± 0.03
  Absorbance Day 2: 0.77 ± 0.08
  Absorbance Day 3: 0.79 ± 0.03
  Absorbance Day 4: 0.84 ± 0.05
  Absorbance Day 5: 0.91 ± 0.09
[6]
  ABTS Activity: ≥100%
  IC50: 2.38 ± 0.07 mM
[4]
  inhibition at 1000 µM: 12.8%
  IC50: > 1000 µM
[5]
  inhibition at 1000 µM: 13.9%
  IC50: > 1000 µM

## Cc1ccc(S(=O)(=O)N/N=C/c2cn(Cc3ccccc3)c3ccccc23)cc1 [5g, N’-[(E)-(1-benzyl-1H-indol-3-yl)methylidene]-4-methylbenzenesulfonohydrazide]
[1]
  DPPH Activity: 45.72 ± 1.38%
SH-SY5Y cells
  IC50: 92.1 ± 9.3 µM
Neuro-2a cells
  IC50: 135 ± 10.9 µM
CCL-1 cells
  IC50: 50.7 ± 3.6 µM
[2]
  FRAP: 15.87 ± 1.13 μMTE
[3]
  Absorbance Day 1: 0.82 ± 0.04
  Absorbance Day 2: 0.87 ± 0.09
  Absorbance Day 3: 0.88 ± 0.09
  Absorbance Day 4: 0.87 ± 0.05
  Absorbance Day 5: 0.88 ± 0.03
[6]
  ABTS Activity: ≥100%
  IC50: 2.08 ± 0.1 mM
[4]
  inhibition at 1000 µM: 2.18%
  IC50: > 1000 µM
[5]
  inhibition at 1000 µM: 40.6%
  IC50: > 1000 µM

## COc1ccc(/C=N/NS(=O)(=O)c2ccc(C)cc2)cc1OC [5h, N’-[(E)-(3,4-dimethoxyphenyl)methylidene]-4-methylbenzenesulfonohydrazide]
[1]
  DPPH Activity: 16.94 ± 1.09%
SH-SY5Y cells
  IC50: 42 ± 5.2 µM
Neuro-2a cells
  IC50: 136 ± 12.6 µM
CCL-1 cells
  IC50: 160 µM
[2]
  FRAP: 20.37 ± 0.90 μMTE
[3]
  Absorbance Day 1: 0.70 ± 0.09
  Absorbance Day 2: 0.82 ± 0.06
  Absorbance Day 3: 0.83 ± 0.05
  Absorbance Day 4: 0.83 ± 0.06
  Absorbance Day 5: 0.80 ± 0.05
[6]
  ABTS Activity: ≥100%
  IC50: 1.85 ± 0.03 mM
[4]
  inhibition at 1000 µM: 10.5%
  IC50: > 1000 µM
[5]
  inhibition at 1000 µM: 26.6 ± 5.11%
  IC50: > 1000 µM

## COc1ccc(/C=N/NS(=O)(=O)c2ccccc2)cc1OC [5i, N’-[(E)-(3,4-dimethoxyphenyl)methylidene]benzenesulfonohydrazide]
[1]
  DPPH Activity: 16.21 ± 3.01%
SH-SY5Y cells
  IC50: 40.3 ± 6.1 µM
Neuro-2a cells
  IC50: 109 ± 5.1 µM
CCL-1 cells
  IC50: 147 µM
[2]
  FRAP: 14.67 ± 0.81 μMTE
[3]
  Absorbance Day 1: 0.81 ± 0.08
  Absorbance Day 2: 0.83 ± 0.01
  Absorbance Day 3: 0.83 ± 0.09
  Absorbance Day 4: 0.81 ± 0.02
  Absorbance Day 5: 0.83 ± 0.03
[6]
  ABTS Activity: 65.29 ± 2.34%
  IC50: 3.74 ± 0.05 mM
[4]
  inhibition at 1000 µM: 2.63%
  IC50: > 1000 µM
[5]
  inhibition at 1000 µM: 7.67 ± 0.99%
  IC50: > 1000 µM

## O=S(=O)(N/N=C/c1c[nH]c2ccc(OCc3ccccc3)cc12)c1ccccc1 [5k]
[1]
  DPPH Activity: 47.18 ± 1.14%
SH-SY5Y cells
  IC50: 135 ± 14 µM
Neuro-2a cells
  IC50: 77.7 ± 6.9 µM
CCL-1 cells
  IC50: 321 ± 16.2 µM
[2]
  FRAP: 22.52 ± 1.29 μMTE
[3]
  Absorbance Day 1: 0.80 ± 0.04
  Absorbance Day 2: 0.80 ± 0.09
  Absorbance Day 3: 0.83 ± 0.05
  Absorbance Day 4: 0.84 ± 0.08
  Absorbance Day 5: 0.87 ± 0.09
[6]
  ABTS Activity: ≥100%
  IC50: 2.57 ± 0.13 mM
[4]
  inhibition at 1000 µM: 35.4%
  IC50: > 1000 µM
[5]
  inhibition at 1000 µM: 4.97%
  IC50: > 1000 µM

## Cc1cc(C(C)(C)C)c(O)c(C(C)(C)C)c1 [BHT, butylated hydroxytoluene, reference compound]
[1]
  DPPH Activity: 7.78 ± 0.77%
[2]
  FRAP: 15.79 ± 0.58 μMTE
[3]
  Absorbance Day 1: 0.74 ± 0.07
  Absorbance Day 2: 0.77 ± 0.03
  Absorbance Day 3: 0.78 ± 0.06
  Absorbance Day 4: 0.80 ± 0.06
  Absorbance Day 5: 0.81 ± 0.09
[6]
  ABTS Activity: 29.53 ± 1.65%
  IC50: > 5 mM

Reference: publication PMC10534827 (Pharmaceuticals, 2023)
